# Data reported in patent US7592326B2, “Method for stimulating the immune, inflammatory or neuroprotective response” (priority 2004, dated 2009).
# Key:
# [1] = system: PR8 followed by D39 or NCH57; test: Secondary bacterial pneumonia following influenza infection in mice (proposed); assay type: in vivo; conditions: 200 nmol/animal 24- and 48 hours prior to bacterial challenge
# Protocol: To show the effect of c-di-GMP secondary bacterial pneumonia following influenza infection, groups of 6 mice are infected with 100 TCID50 of PR8 and challenged 7 days later with either 1000 CFU of D39, or 1×10^7 CFU of NCH57 and followed twice daily for weight loss, development of secondary bacterial infections by bioluminescent imaging, and mortality. One group of mice is treated with c-di-GMP 24- and 48 hours (e.g., orally, intransal, i.p, s.q. i.m.) prior to bacterial challenge with 200 nmol/animal.
# S. pneumoniae strain D39 = test: Mouse pneumococcal pneumonia (proposed); assay type: in vivo; conditions: 200 nmol 24- and 48 hours prior; 1×10^5 CFU D39
# [2] = system: TLR1/2, TLR3, TLR4/MD2, TLR5, TLR2/6, TLR7, TLR8, and TLR9; test: HEK cells stably transfected with TLRs, IL-8 transcripts by QPCR; assay type: cell-based, human; conditions: 200 uM, 3 hours
# Protocol: To test this hypothesis, human embryonic kidney (HEK) cells, which are normally unresponsive to TLR ligand stimulation, were stably transfected with TLR1/2, TLR3, TLR4/MD2, TLR5, TLR2/6, TLR7, TLR8, and TLR9. HEK 293 cells were cultured in Dulbecco's modified Eagle's medium supplemented with 10% fetal bovine serum. Cells were plated in 24-well tissue culture plates (1×10^5 cells/well) and maintained in the above medium for 24 h. The following day, cells were either left untreated or incubated with the indicated amount of TLR ligand. After the 3 hour treatment period, cells were harvested for total RNA using the Qiagen RNeasy kit per the manufacturer's protocol. The total RNA was converted to cDNA and QPCR was performed to determine the number of copies of IL-8.
# p38 MAPK = test: Western blot signaling in human DCs: p38 MAPK; assay type: cell-based; conditions: 5 and 20 min treatment, FIG. 13A
# Protocol: Human PBMC were isolated by Ficoll density gradient centrifugation from leukopacks supplied by the Department of Transfusion Medicine (Clinical Center, National Institute of Health, Bethesda, Md.). Monocytes were purified (>95%) from human PBMC with MACS CD14 monocyte isolation kit (Miltenyi Biotech Inc., Auburn, Calif.) according to the manufacturer's instruction. DCs were generated as described previously (Yang et al., 2001). In brief, DCs were generated by incubating purified monocytes at 2×10^5/ml in RPMI 1640 containing 10% FBS, 2 mM glutamine, 25 mM HEPES, 100 U/ml penicillin, 100 ug/ml streptomycin, 50 ng/ml recombinant human GM-CSF (PeproTech, Rocky Hill, N.J.), and 50 ng/ml recombinant human IL-4 (PeproTech) at 37° C. in a CO2 (5%) incubator for 7 days. On day 3 and 5 of the incubation, half of the culture medium was replaced with pre-warmed (37° C.) fresh GM-CSF- and IL-4-containing medium. On day 7, DCs were collected, washed three times with PBS, and serum-starved for 8 hours by incubating in serum-free RPMI-1640 containing GM-CSF and IL-4 (2×10^5/ml) at 37° C. in a CO2 (5%) incubator. Subsequently, DCs (2×10^6/sample) were incubated at 37° C. in the absence or presence of c-di-GMP or GMP (Sigma, St. Louis, Mo.) at concentrations specified for 5 or 30 minutes. […]
smiles,measurement,setting,value
"Nc1nc(=O)c2ncn([C@@H]3OC4COP(=O)(O)O[C@H]5[C@@H](O)[C@H](n6cnc7c(=O)nc(N)[nH]c76)O[C@@H]5COP(=O)(O)OC4C3O)c2[nH]1 (some centres unmarked) [c-di-GMP, Bis(3′→5′)-cyclic diguanylic acid]",survival,[1],greater survival
same,bacterial counts in the lungs,S. pneumoniae strain D39,decreased bacterial counts
same,stimulation of LPS-sensitive MD2/TLR4-HEK cell line,[2],failed to stimulate
same,activation of TLR expressing HEK cell lines (IL-8 transcripts),[2]; FIG. 14,none of the TLR expressing cell lines were activated
same,activation of p38 MAPK (phospho-p38),p38 MAPK,activated
